Assay results reported in article PMC8174488, “4-Arylthiosemicarbazide derivatives as a new class of tyrosinase inhibitors and anti-Toxoplasma gondii agents” (Journal of Enzyme Inhibition and Medicinal Chemistry, 2021).

Tested on: Hs27 cell line
Test: Cytotoxicity assay (MTT) on human fibroblast Hs27 cells
Type: cell-based
Details: not given
Protocol: (§1) Cell viability assay was performed according to international standards (ISO 10993–5:2009(E)), using tetrazolium salt (MTT, Sigma-Aldrich) and mouse fibroblasts L929 cells. Culture medium RPMI 1640, without phenol red (Biowest, Nuaille, France) supplemented with 10% FBS, 2 mM L-glutamine (Sigma-Aldrich), 100 I.U./mL penicillin, 100 µg/mL streptomycin were used. Briefly, 1 × 10^4/well of L929 cells were placed in 96-well plates and incubated for 24 h at 37 °C and 10% CO2. Afterwards, the old culture medium was replaced with 100 µL of the compound, drug or inhibitor, diluted in culture medium, and the cells treated for 24 h. Additionally, cells were treated with 0.03–4.0% concentration of DMSO as the solvent (data not shown). Then, 50 µL of 1 mg/mL of MTT solution in RPMI 1640 without phenol red was added to each well and incubated for 2 h at 37 °C and 10% CO2. Next, cell culture medium was aspirated carefully and 150 µL of DMSO was added to each well, and the plates were gently mixed. Then, 25 µL 0.1 M glycine buffer (pH 10.5) (Sigma-Aldrich) was added. The optical density at 570 nm using a multi-mode microplate reader SpectraMax® i3 (Syngen, Taipei City, Taiwan) was recorded. The results were expressed as a percentage of viability compared to untreated cells. All experiments were performed in triplicate. Cytotoxicity assay using human fibroblast Hs27 cells was also performed as described above (included in Supplementary Material).

Compound | CC30
Cc1nc[nH]c1C(=O)NNC(=S)Nc1ccccc1Cl [Compound 3a] | 502.21 µM
Cc1nc[nH]c1C(=O)NNC(=S)Nc1cccc(I)c1 [Compound 6a] | 209.45 µM
Cc1nc[nH]c1C(=O)NNC(=S)Nc1ccc([N+](=O)[O-])cc1 [Compound 2a] | 697.67 µM
COc1ccccc1NC(=S)NNC(=O)c1[nH]cnc1C [Compound 7a] | 498.12 µM
Cc1nc[nH]c1C(=O)NNC(=S)Nc1ccccc1Br [Compound 4a] | 728.41 µM
Cc1nc[nH]c1C(=O)NNC(=S)Nc1ccccc1I [Compound 5a] | 278.72 µM
Cc1nc[nH]c1C(=O)NNC(=S)Nc1cc(F)ccc1F [Compound 9a] | 612.48 µM
Cc1nc[nH]c1C(=O)NNC(=S)Nc1cccc([N+](=O)[O-])c1 [Compound 1a] | 479.22 µM

Same assay, conditions: Hs27 cell line, MTT

Compound | CC30
O=c1cc(CO)occ1O [Kojic acid (KA), Kojic acid, reference compound] | > 2500 µM

Tested on: L929 cells
Test: not given
Details: cited from earlier work

Compound | CC30
Cc1nc[nH]c1C(=O)NNC(=S)Nc1ccccc1Cl [Compound 3a] | 462.12 µM
COc1ccccc1NC(=S)NNC(=O)c1[nH]cnc1C [Compound 7a] | 452.06 µM
Cc1nc[nH]c1C(=O)NNC(=S)Nc1ccccc1Br [Compound 4a] | 579.61 µM
Cc1nc[nH]c1C(=O)NNC(=S)Nc1ccccc1I [Compound 5a] | 253.17 µM
Cc1nc[nH]c1C(=O)NNC(=S)Nc1cc(F)ccc1F [Compound 9a] | 509.11 µM
Cc1nc[nH]c1C(=O)NNC(=S)Nc1cccc([N+](=O)[O-])c1 [Compound 1a] | 440.95 µM

Tested on: T. gondii tachyzoites RH-GFP strain
Test: Influence of compounds during Toxoplasma growth, assay B (compounds present 24 h after penetration)
Type: cell-based, Toxoplasma gondii
Details: 3 h infection without compound, then compound at IC50Tg for 24 h, Hs27 cells, vs untreated cells

Compound | number of tachyzoites per PV | percentage of infected cells
O=c1cc(CO)occ1O [Kojic acid (KA), Kojic acid, reference compound] | significant reduction | not observable
Cc1nc[nH]c1C(=O)NNC(=S)Nc1cccc(I)c1 [Compound 6a] | significant reduction | not observable
Cc1nc[nH]c1C(=O)NNC(=S)Nc1ccc([N+](=O)[O-])cc1 [Compound 2a] | significant reduction | not observable

Tested on: L929 cells
Test: Cell viability assay (MTT, ISO 10993-5) on L929 mouse fibroblasts
Type: cell-based
Details: 24 h, concentration for 30% inhibition of cell proliferation
Excerpt: First, we evaluated the cytotoxic effects of 1b–9b, which is necessary prior to measuring anti-Toxoplasma and Tyr inhibition in order to exclude cytotoxic compounds. […] Cytotoxicity was estimated using mouse fibroblast (L929) cells line via MTT assay, according to the international standards ISO 10993–5:2009(E). […] Therefore, the obtained results were expressed as CC30, which was defined as the highest concentration of the compound that causes 30% damage of cells and was considered according to ISO as non-toxic.
The L929 mouse fibroblast (ATTC® CCL-1™, Manassas, VA) was routinely maintained in RPMI 1640 media (R8758, Sigma-Aldrich, Suffolk, UK), supplemented with 10% foetal bovine serum (Foetal Bovine Serum, ATCC® 30–2020™), 100 I.U./mL penicillin and 100 µg/mL streptomycin (Penicillin-Streptomycin Solution ATCC® 30–2300™). Cells were trypsinised (Trypsin-EDTA Solution, 1X ATCC® 30–2101™) twice a week and seeded at a density of 1 × 10^6 per T25 cell culture flask and incubated at 37 °C and 10% CO2 to achieve a confluent monolayer.
as §1

Compound | CC30
O=c1cc(CO)occ1O [Kojic acid (KA), Kojic acid, reference compound] | 1558.28 µM
CCc1nc(N)nc(N)c1-c1ccc(Cl)cc1 [Pyrimethamine (PYR), Pyrimethamine, reference compound] | 181.97 µM

Same assay, conditions: 24 h, concentration for 30% inhibition of cell proliferation, listed as KA

Compound | CC30
O=c1cc(CO)occ1O [Kojic acid (KA), Kojic acid, reference compound] | 1558.0 µM

Tested on: T. gondii RH strain
Test: not given
Parameters: method as in PMID 30744161, PMID 31022878
Details: 50% inhibition of T. gondii proliferation in vitro; reported previously, listed for comparison; cited from earlier work

Compound | IC50
Cc1nc[nH]c1C(=O)NNC(=S)Nc1ccccc1Cl [Compound 3a] | 115 µM
Cc1nc[nH]c1C(=O)NNC(=S)Nc1cccc(I)c1 [Compound 6a] | 25.7 µM
Cc1nc[nH]c1C(=O)NNC(=S)Nc1ccc([N+](=O)[O-])cc1 [Compound 2a] | 67.5 µM
COc1ccccc1NC(=S)NNC(=O)c1[nH]cnc1C [Compound 7a] | 108 µM
Cc1nc[nH]c1C(=O)NNC(=S)Nc1ccccc1Br [Compound 4a] | 78.1 µM
Cc1nc[nH]c1C(=O)NNC(=S)Nc1ccccc1I [Compound 5a] | 50.6 µM
Cc1nc[nH]c1C(=O)NNC(=S)Nc1cc(F)ccc1F [Compound 9a] | 172 µM
Cc1nc[nH]c1C(=O)NNC(=S)Nc1cccc([N+](=O)[O-])c1 [Compound 1a] | 46.1 µM

Target: T1, Tyr from mushrooms (Agaricus bisporus, UniProt C7FF04)
T1 sequence (G1K3P4 entry or part of it): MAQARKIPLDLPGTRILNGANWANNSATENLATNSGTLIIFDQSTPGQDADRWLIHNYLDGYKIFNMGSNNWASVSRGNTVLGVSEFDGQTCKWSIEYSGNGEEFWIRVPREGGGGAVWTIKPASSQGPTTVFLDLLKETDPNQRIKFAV
T1 sequence (C7FF04 1-392): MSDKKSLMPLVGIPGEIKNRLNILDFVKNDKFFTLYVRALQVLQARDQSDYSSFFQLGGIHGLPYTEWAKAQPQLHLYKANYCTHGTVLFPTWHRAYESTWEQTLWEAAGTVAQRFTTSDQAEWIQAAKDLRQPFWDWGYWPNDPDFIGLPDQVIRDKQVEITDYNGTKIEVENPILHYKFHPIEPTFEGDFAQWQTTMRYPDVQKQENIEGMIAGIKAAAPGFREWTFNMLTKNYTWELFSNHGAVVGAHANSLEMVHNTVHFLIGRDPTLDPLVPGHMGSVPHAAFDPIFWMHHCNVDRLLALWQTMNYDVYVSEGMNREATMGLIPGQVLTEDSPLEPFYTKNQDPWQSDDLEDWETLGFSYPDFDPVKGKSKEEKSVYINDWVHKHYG
Test: Kinetic analysis of the inhibition of tyrosinase (Lineweaver-Burk, Dixon, [L-tyrosine]/V vs [I] plots)
Type: biochemical, mushroom
Details: Dixon plots
Protocol: Therefore, these compounds were subsequently subjected to detailed kinetic studies to evaluate inhibition parameters. […] Dixon plots (Figure 7) were used in evaluating the KI values, while the plots of [L-tyrosine]/V vs. [I] (Figure 8), were employed to determine IC50Tyr[50]. [I] represents the concentration of the inhibitor. Rates were monitored spectrophotometrically by detecting changes in absorbance at 492 nm.
Solutions containing 80 µL of 0.625, 1.25, or 2.5 mM L-tyrosine and 50 µL of 20, 100, or 200 µM inhibitor were added to a 96-well plate. Then, solution containing 70 µL of Tyr (10 U) was added and the initial rate of dopachrome formation was determined through detecting the increase in absorbance at the wavelength of 492 nm (Δ492/min). […] In order to determine the inhibition constants KI the Dixon plots were constructed, whereas the plots of [L-tyrosine]/V vs. inhibitor concentration [I] were used for IC50Tyr evaluation. The results from three experiments are shown.

Compound | Ki
Cc1nc[nH]c1C(=O)NNC(=S)Nc1cccc(I)c1 [Compound 6a] | 12.4 µM
Cc1nc[nH]c1C(=O)NNC(=S)Nc1ccc([N+](=O)[O-])cc1 [Compound 2a] | 9.35 µM

Same assay, conditions: Lineweaver–Burk plots

Compound | character of inhibition
Cc1nc[nH]c1C(=O)NNC(=S)Nc1cccc(I)c1 [Compound 6a] | mixed character of inhibition
Cc1nc[nH]c1C(=O)NNC(=S)Nc1ccc([N+](=O)[O-])cc1 [Compound 2a] | mixed character of inhibition

Same assay, conditions: plots of [L-tyrosine]/V vs [I]

Compound | IC50
Cc1nc[nH]c1C(=O)NNC(=S)Nc1cccc(I)c1 [Compound 6a] | 37.4 µM
Cc1nc[nH]c1C(=O)NNC(=S)Nc1ccc([N+](=O)[O-])cc1 [Compound 2a] | 38.3 µM

Tested on: T. gondii RH strain
Test: Antiparasitic assay: T. gondii RH proliferation in Hs27 cells, [3H]uracil incorporation
Type: cell-based, Toxoplasma gondii
Details: Toxoplasma gondii, HS27

Compound | IC50
O=c1cc(CO)occ1O [Kojic acid (KA), Kojic acid, reference compound] | 501 µM
CCc1nc(N)nc(N)c1-c1ccc(Cl)cc1 [Pyrimethamine (PYR), Pyrimethamine, reference compound] | 11.5 µM

Same assay, conditions: ratio of CC30 (L929) to IC50Tg

Compound | SR (selectivity ratio)
CCc1nc(N)nc(N)c1-c1ccc(Cl)cc1 [Pyrimethamine (PYR), Pyrimethamine, reference compound] | 15.85

Target: T1, Tyr from mushrooms
Test: Inhibition of tyrosinase activity assay (screening at 25 µM)
Type: biochemical, mushroom
Details: at 25 µM compound, L-tyrosine substrate, 10 U Tyr, 30 min
Protocol: In our study, we used Tyr from mushrooms (T3824, Sigma) for all experiments. All compound dilutions, L-tyrosine a Tyr substrate, and Tyr were prepared in 50 mM phosphate buffer (pH 6.5). […] 100% Tyr activity we used for the sample without addition compound/inhibitor. […] The average results from three experiments are shown.

Compound | Tyrosinase inhibition
Cc1nc[nH]c1C(=O)NNC(=S)Nc1cccc(I)c1 [Compound 6a] | 48.9 ± 3.0%
Cc1nc[nH]c1C(=O)NNC(=S)Nc1ccc([N+](=O)[O-])cc1 [Compound 2a] | 46.4 ± 3.6%

Tested on: T. gondii tachyzoites RH-GFP strain
Test: Influence of compounds during Toxoplasma growth, assay A (compounds present only during penetration)
Type: cell-based, Toxoplasma gondii
Details: compound at IC50Tg for 3 h during penetration, then 24 h free medium, Hs27 cells, vs untreated cells

Compound | number of tachyzoites per PV | number of infected cells (infection index)
O=c1cc(CO)occ1O [Kojic acid (KA), Kojic acid, reference compound] | significant reduction | –
Cc1nc[nH]c1C(=O)NNC(=S)Nc1cccc(I)c1 [Compound 6a] | significant reduction | significant reduction
Cc1nc[nH]c1C(=O)NNC(=S)Nc1ccc([N+](=O)[O-])cc1 [Compound 2a] | significant reduction | significant reduction

Tested on: Toxoplasma gondii
Test: not given
Details: Toxoplasma gondii proliferation; cited from earlier work

Compound | IC50
Nc1ccc(S(=O)(=O)Nc2ncccn2)cc1 [sulfadiazine] | ~8500 µM
